Experimental data published in patent US9622469B2, “Crosslink breakers for preservation of biological substances” (priority 2013, dated 2017).
Marks after values point to notes of the source that are not given here.

What was measured:
[1] = tested on: mouse RBC; assay: Storage of leukoreduced mouse blood in CPDA-1 at 4° C.: hemolysis and intact RBC count; format: cell-based; settings: CPDA-1 buffer
Procedure: FIG. 1 illustrates OCR6043-mediated prolonging of the integrity of stored RBCs. Leuko reduced mouse blood was stored under FDA-approved storage conditions (CPDA-1 buffer at 4° C.) for up to 13 days, in either OCR6043, control compound (structurally similar to OCR6043, but nonfunctional as a AGE crosslink breaker), or without any additive.
This solution was stored at 4° C. according to FDA-approved conditions for 13 days. […] The steps to collect HOD blood from mice and the addition of the FDA-approved storage buffer CPDA are described in Hendrickson et al., Transfusion of fresh murine red blood cells reverses adverse effects of older stored red blood cells, Transfusion (2011) Vol. 12, pp. 2695-2702.
We also counted the intact RBCs using a hemocytometer after 13 days of storage as also depicted in FIG. 1.

[2] = Cleavage of PPD (3) to benzoic acid by NHC precursors, Method B (MeCN co-solvent); format: biochemical; settings: for Yield (%) of benzoic acid from cleavage of 3: MeCN/pH 7.4 phosphate buffer, 37° C., LCMS peak integration with respect to 3, background 5%; for Benzoic acid formation from 3 (in words): Method B screen of NHC precursors
Procedure: (§1) Dicarbonyl cleavage reactions were performed using either the method described in Vasan et al., An agent cleaving glucose-derived protein crosslinks in vitro and in vivo, Nature (1996) Vol. 382, pp. 275-278 (Method A) or a modified method with MeCN as a co-solvent (Method B).
(§2) 60 mM solution of dicarbonyl substrate (45 μmol) in MeCN (0.75 ml) was added to 20 mM solution of NHC (15 μmol) in 0.15 M pH 7.4 sodium phosphate buffer (0.75 ml) and kept stirred at 37° C. At stated times, 75 μl aliquots were taken, diluted with 50% MeCN/H2O (425 μl) and analyzed by LCMS with 2,4-dihydroxyquinoline (248 μM) as an internal standard. The cleavage products were quantified by peak integration against the calibration curves.
Thus, our first goal in these studies was to assess the ability of various NHC precursors to induce the degradation of the dicarbonyl model substrate (PPD, 3). To this end, we screened the thiazolium (4-6), benzothiazolium (7), triazolium (8,9) and imidazolium (10) halide substructures shown in Table 1.

[3] = Cleavage of PPD by NHC precursors, Method A (alcoholic co-solvent); format: biochemical; settings: for Combined % Yield (PhCO2H, PhCO2Me): co-solvent MeOH
Procedure: as §1
PPD (21 μl, 156 μmol) was added to a murky solution of NHC (2 or 4, 71 μmol) in 50% MeOH/0.5 M pH 7.4 sodium phosphate buffer (3.5 ml/3.5 ml; final conc. 10 mM NHC, 22 mM PPD) and kept stirred at 37° C. Approximately 0.5 ml aliquots were taken at stated times and analyzed by HPLC. Experiments using EtOH or iPrOH as a co-solvent were done in the same manner. Concentrations of benzoic acid and benzoate esters were determined by peak integration against the calibration curves.
Having learned that ALT-711 performed best among NHCs evaluated for PPD cleavage, we sought to test its substrate scope versus its N-benzyl counterpart (4). We therefore measured product distribution and yield while varying the co-solvent used to solubilize dicarbonyl substrates. As summarized in Table 2, we first investigated the performance of alcoholic co-solvents in PPD cleavage reactions. […] Despite this, however, the product distributions differed substantially: ALT-711 (2) predominantly afforded benzoic acid (PhCO2H:PhCO2Me=3.2:1, Entry 2), whereas 4 mostly gave rise to methyl benzoate (PhCO2H:PhCO2Me=1:2.2, Entry 4). Further replacement of the co-solvent with EtOH and i-PrOH in 4-catalyzed reactions led to a decrease in the proportion of ester production, still without altering overall yield (Entries 5 and 6).

[4] = NHC-mediated cleavage of benzil (15), Method B; format: biochemical; settings: LCMS, with respect to dicarbonyl
Procedure: as §2
(§3) Our efforts to investigate the scope of thiazolium salt-mediated reactions with dicarbonyls began with bis-alkyl diketone 14 (Table 3, Entry 1). This substrate is cleaved cleanly by 2, and affords acid 18 in 82% yield. NHC precursor 4, on the other hand, provides 18 in only 14% yield (Entry 2). The efficiency of dicarbonyl cleavage reactions decreases substantially in the case of benzil (15, Entry 3), which affords benzoic acid in 14% and 1% yield following exposure to 2 and 4, respectively.

[5] = NHC-mediated reaction with α-keto aldehyde phenylglyoxal (16), Method B; format: biochemical; settings: LCMS, phenylglyoxal alone gives 25% benzoic acid
Procedure: as §2
Phenylglyoxal hydrate (16; 114 mg, 0.75 mmol, 2 eq) was added to a solution of ALT-711 (2; 100 mg, 0.37 mmol) in 50% MeCN/0.15 M pH 7.4 phosphate buffer (total vol. 37 ml) and kept stirred at room temperature for 15 mins. The reaction mixture was cooled to −20° C. to precipitate out sodium phosphate as white crystals. The supernatant was transferred, and the residue was washed with MeCN and combined with the supernatant. This yellow clear solution was concentrated at room temperature to remove MeCN and purified by HPLC (16-27MeCN over 31 min). […]
Reactions involving α-keto aldehyde derivatives 16 and 17 followed an unexpected course. Treatment of these substrates with 2 led to instantaneous, high-yield production of a diastercomeric mixture of cycloadducts (19 and 20) that decompose to complex mixtures under the reaction conditions with half-lives of approximately 3 h Structures were determined based on in-depth NMR analysis (see Supplementary Material).

[6] = NHC-mediated cleavage of bis-alkyl diketone 14, Method B; format: biochemical; settings: LCMS, with respect to dicarbonyl
Procedure: as §2, §3

[7] = tested on: HOD alloantigen on stored RBCs; assay: Immunogenicity of stored blood upon transfusion (anti-HOD IgG ELISA); format: in vivo, mouse; settings: blood stored 14 days, transfused into B6 mice, 14 days following transfusion
Procedure: Leuko-reduced mouse blood was stored under typical storage conditions for up to 14 days, in either OCR6043, control compound, or without any treatment. FIG. 2A illustrates an analysis of glucose in the serum from the stored blood was evaluated using a glucose oxidase enzymatic assay. […] FIG. 2B illustrates the AGE precursor levels on RBCs were measured using a dicarbonyl-specific fluorophore that was developed in-house. The time dependent increase in the AGE precursor levels was dampened in the presence of OCR6043. FIG. 2C illustrates mouse blood that was stored for 14 days, was evaluated for its immunogenicity upon transfusion, by testing for IgGs against an alloantigen on the RBCs (HOD=HEL-OVA-Duffy).
OCR6043 treatment decreases immunogenicity, and enhances post-transfusion recovery of stored mouse blood. Leukoreduced mouse blood was stored under typical storage conditions for up to 14 days in either OCR6043 or without any treatment. This mouse blood was evaluated for its immunogenicity upon transfusion by testing for IgGs against an alloantigen on the RBCs (HOD=HEL-OVA-Duffy).
As described herein, the stored blood has an HOD marker allowing facile detection after transfusion. We transfused […] of stored blood into B6 mice (not expressing the HOD antigen). […] The anti-HOD IgG response was evaluated using standard ELISA techniques described in Hendrickson et at.

[8] = physiological conditions; cited from earlier work

Row | Structure (SMILES) | Yield (%) of benzoic acid from cleavage of 3 ([2]; Method B) | Benzoic acid formation from 3 (in words) [2] | also measured
1 | Cn1c[n+](CC(=O)c2ccccc2)cn1.[Cl-] [MPTC, 1-methyl-4-phenacyl-triazolium chloride] |  |  | Hemolysis of stored blood (supernatant appearance) ([1]; up to 13 days, 12 mM): hemolysis
2 | Cc1sc[n+](CC(=O)c2ccccc2)c1C.[Cl-] [drawing 8] | 60% |  | 
3 | [Cl-].c1ccc(C[n+]2csc3ccccc32)cc1 [Compound 7] |  | no observable levels of benzoic acid | 
4 | [Cl-].c1ccc(C[n+]2csc3ccccc32)cc1 [drawing 12] | 0^b % |  | 
5 | Cn1c[n+](CC(=O)c2ccccc2)cn1.[Cl-] [drawing 14] | 12% |  | 
6 | Cc1sc[n+](Cc2ccccc2)c1C.[Cl-] [Compound 4, 3-benzyl-4,5-dimethylthiazol-3-ium chloride] |  | substantially lower yields | Combined % Yield (PhCO2H, PhCO2Et) ([3]; co-solvent EtOH): 60%; Combined % Yield (PhCO2H, PhCO2Me) [3]: 62%; Combined % Yield (PhCO2H, PhCO2iPr) ([3]; co-solvent i-PrOH): 58%; % Yield of PhCO2H from substrate 15 (benzil) [4]: 1%; % Yield of PhCO2H from substrate 16 [5]: 30^c %; Combined % Yield (PhCO2H) ([2]; co-solvent MeCN, Method B, LCMS, with respect to dicarbonyl): 20%; % Yield of acid 18 from substrate 14 [6]: 14%
7 | Cn1c[n+](CC(=O)c2ccccc2)cn1.[Cl-] [Compound 9] |  | restores the reactivity to a small extent | 
8 | Cn1cc[n+](CC(=O)c2ccccc2)c1.[Cl-] [Compound 10] |  | did not produce any benzoic acid | 
9 | Cc1sc[n+](Cc2ccccc2)c1C | 20% |  | 
10 | Cn1cc[n+](CC(=O)c2ccccc2)c1.[Cl-] [drawing 15] | 0^b % |  | 
11 | Cc1c(CCO)sc[n+]1Cc1ccccc1.[Cl-] [Compound 5] |  | substantially lower yields | 
12 | Cn1c[n+](Cc2ccccc2)cn1.[Cl-] [drawing 13] | 0^b % |  | 
13 | Cc1c(CCO)sc[n+]1Cc1ccccc1.[Cl-] [drawing 10] | 14% |  | 
14 | O=C(C[n+]1ccsc1)c1ccccc1.[Br-] [Compound 1, N-phenacylthiazolium bromide] |  |  | Combined % Yield (PhCO2H, PhCO2Me) [3]: 39%; RBC viability / intact RBCs (hemocytometer) ([1]; 13 days): higher levels of intact RBCs; Immunogenicity upon transfusion (IgG against HOD alloantigen) [7]: lower immunogenicity; Half-life of decomposition [8]: 44 min
15 | Cn1c[n+](Cc2ccccc2)cn1.[Cl-] [Compound 8] |  | no observable levels of benzoic acid | 
